Data reported in US11235023B2, “Beta-hairpin peptidomimetic with elastase inhibitory activity and aerosol dosage forms thereof” (POLYPHOR AG, priority 2016, dated 2022).
Non-standard residues stand in square brackets, D forms with d. Residues, ends and D or L forms follow the SMILES beside them. Gly(octyl) = CCCCCCCC[C@H](N)C(=O)O

How the values were obtained:
[1] = Phase-Ib single ascending dose study in patients with cystic fibrosis, safety and tolerability; format: in vivo, human
Description: In this randomised, double-blind, placebo-controlled, parallel-group (per dose level) dose-escalation study, the safety and tolerability of single ascending doses (SAD) of acetate salt of cyclo(-OctG-Glu-Thr-Ala-Ser-Ile-Pro-Pro-Gln-Lys-Tyr-^DPro-Pro-) administered by inhalation in patients with cystic fibrosis (CF) was investigated. Additionally, the pharmacokinetics of the drug following a single ascending dose in plasma and sputum as well as its pharmacodynamic effect on neutrophil elastase activity in sputum were evaluated.
In this study, conducted by Inamed GmbH, Gauting, Germany, 24 subjects with cystic fibrosis, who fulfilled all the inclusion criteria and in whom no exclusion criterion was present, were included and received randomised treatment. They were grouped into 3 dose groups of 8 subjects each. 6 subjects received the formulation described in Example 1 and dilutions thereof and 2 subjects received placebo (0.5% [w/w] aqueous sodium chloride solution adjusted to pH 5.5 with 1 M HCl pharmaceutical grade). The oral inhalation of the above formulation as well as the placebo occurred via the Pari eFlow® XL 30 nebulizer device (Pari Pharma GmbH, Starnberg, Germany). The dose levels and corresponding concentrations of cyclo(-OctG-Glu-Thr-Ala-Ser-Ile-Pro-Pro-Gln-Lys-Tyr-^DPro-Pro-) (active compound) are summarized in Table 14.
The volume of placebo nebulizer solution corresponded to that of the active compound at a particular dose level. The duration of inhalation was estimated to be between 7 and 20 min. Adverse events were tabulated and summarized according to the current version of Medical Dictionary for Regulatory Activities.

[2] = target: T1, human neutrophil elastase (Homo sapiens, UniProt P08246); experiment: Phase-Ib study in CF patients, active neutrophil elastase in sputum by FRET assay; format: in vivo
T1 construct: from tissue; host or cells: spontaneous sputum of patients with cystic fibrosis (PBS-soluble fraction)
T1 sequence (P08246 30-267): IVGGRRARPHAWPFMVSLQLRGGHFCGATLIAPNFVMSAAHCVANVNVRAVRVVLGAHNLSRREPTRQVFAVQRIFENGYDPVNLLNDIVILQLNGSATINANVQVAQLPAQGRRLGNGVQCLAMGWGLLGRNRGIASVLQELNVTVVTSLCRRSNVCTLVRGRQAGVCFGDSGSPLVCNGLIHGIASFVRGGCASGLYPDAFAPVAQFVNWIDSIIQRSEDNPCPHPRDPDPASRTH
Protocol: The pharmacodynamic effect of ascending single doses of active compound was investigated by evaluation of neutrophil elastase (NE) activity in sputum using FRET (fluorescence resonance energy transfer) assay after PBS aliquotation and freezing.
On the day of screening, if possible, for baseline assessment of NE activity, on Day −1 as soon as possible after the subject's arrival at the study site for baseline assessment of NE activity, on Day 1 in the period of time between 1 h and 3 h after start of inhalation, and in the morning of Day 2, at approx. 24 h after start of inhalation.
Spontaneous sputum samples were collected in polystyrene Petri dishes and put on ice immediately. All processing steps had to be performed with cold reagents and on ice whenever possible. Plugs were separated from saliva, but the latter was not discarded. If a sputum sample was taken for both PK and NE activity in sputum analysis, the plug was split in 2 approximately equal parts. One part was processed for evaluation of NE activity in sputum the other one for PK analysis, as described above.
For evaluation of NE activity in sputum, at first, the weight of the sputum sample was determined and 8 mL cold phosphate-buffered saline (PBS) per gram purified sputum was added. The sample was vortexed for 30 s at room temperature (15-24° C.). Then, the soluble fraction was separated from the sputum pellet by centrifugation (10 min at 1000×g and 4° C.). The supernatant was transferred to a fresh tube.
Remaining insoluble particles were separated by a second centrifugation step at 3500×g for 15 min at 4° C. If the supernatant was not aliquoted immediately, the PBS/sputum supernatant was transferred to a fresh tube.
10 aliquots of 50 μL PBS/sputum were transferred into transfer tubes for evaluation. Moreover, 4 aliquots of 50 μL PBS/sputum were transferred into transfer tubes as backup. In case there was a leftover, the remaining volume was immediately transferred into a transfer tube for evaluation. Any leftover exceeding 2.0 mL was discarded.
The NE activity in sputum was evaluated by using a FRET elastase assay adapted from an assay described in Nature Protocols, 2008, 3, 991 (B. Korkmaz, S. Attucci, M. A. Juliano et al.) and validated by MLM Medical Labs GmbH, Mönchengladbach, Germany.
The assay is based on the reaction of human neutrophil elastase with the substrate 2Abz-Ala-Pro-Glu-Glu-Ile-Met-Arg-Arg-Gln-Tyr(3NO2)—OH (GeneCust Europe S. A., Ellange, Luxembourg, #P160301-SY452824). By adding the substrate solution the enzyme reaction is started and the elastase present in the samples reacts with added substrate. The product of the reaction is detected through fluorescence measurement and the initial reaction velocity is determined. The concentration of active elastase in the unknown samples is back-calculated using the calibration curve calculated from the standards.
An elastase reference stock solution (human neutrophil elastase [ELA2], Höltzel Diagnostika, Köln, Germany, #PN31255) with known enzymatic activity was prepared. The exact active elastase enzyme concentration was determined by titration against an alpha 1-antitrypsin solution (Athens Research and Technology, Athens, USA, #16-16-011609), with a defined concentration. The active elastase reference stock solution was adjusted by addition of PBS to a concentration of 3000 nM and aliquots were stored at −80° C.
The FRET assay was performed in 96 well white microtiter plates in total volume of 100 μL per well. PBS sputum dilutions of 1:5, 1:50 and 1:100 in elastase reaction buffer (50 mM HEPES, pH 7.4, 750 mM NaCl, 0.05% [v/v] NP-40) were prepared, 5 uL loaded per well and 90 uL elastase reaction buffer were added. A 5 mM substrate stock solution of 2Abz-Ala-Pro-Glu-Glu-Ile-Met-Arg-Arg-Gln-Tyr(3NO2)—OH in 30% (v/v) N,N-dimethylformamide/water was prepared and further diluted to 400 nM by addition of elastase reaction buffer. […]

CCCCCCCC[C@@H]1NC(=O)[C@@H]2CCCN2C(=O)[C@H]2CCCN2C(=O)[C@H](Cc2ccc(O)cc2)NC(=O)[C@H](CCCCN)NC(=O)[C@H](CCC(N)=O)NC(=O)[C@@H]2CCCN2C(=O)[C@@H]2CCCN2C(=O)[C@H]([C@@H](C)CC)NC(=O)[C@H](CO)NC(=O)[C@H](C)NC(=O)[C@H]([C@@H](C)O)NC(=O)[C@H](CCC(=O)O)NC1=O [active compound, cyclo(-OctG-Glu-Thr-Ala-Ser-Ile-Pro-Pro-Gln-Lys-Tyr-^DPro-Pro-)] (cyclo([Gly(octyl)]ETASIPPQKY[dP]P))
Deaths, serious and other significant adverse events ([1]; CF patients, single inhaled doses 80, 160, 320 mg): No death, no serious adverse events (AE) and no other significant AE
Causal relationship of TEAEs ([1]; human, in vivo): not related to the active compound
Inhalation-related local AEs ([1]; human, in vivo): no inhalation-related local AEs
Total number of AEs (all TEAEs) ([1]; human, in vivo): 6
Mean concentration of active NE in sputum after single-dose inhalation ([2]; CF patients, 80-320 mg, extent independent of dose): strongly decreased
Mean concentration of active NE in sputum at 24 h after inhalation ([2]; CF patients, high data variability): returned to baseline levels
Mean (SD) concentration of active NE in sputum ([2]; dose level 1 (80 mg), 1-3 h after inhalation, predose 18823.6 (19758.72)): 612.5 (1218.62) ng/mL
Mean (SD) concentration of active NE in sputum ([2]; dose level 1 (80 mg), 24 h after inhalation): 1467.7 (2154.43) ng/mL
Mean (SD) concentration of active NE in sputum ([2]; dose level 2 (160 mg), 1-3 h after inhalation, predose 9548.7 (6222.55)): 115.0 (0.00) ng/mL
Mean (SD) concentration of active NE in sputum ([2]; dose level 2 (160 mg), 24 h after inhalation): 16849.4 (23518.56) ng/mL
Mean (SD) concentration of active NE in sputum ([2]; dose level 3 (320 mg), 1-3 h after inhalation, predose 10480.7 (10528.00)): 115.0 (0.00) ng/mL
Mean (SD) concentration of active NE in sputum ([2]; dose level 3 (320 mg), 24 h after inhalation): 7712.5 (11394.04) ng/mL
Inhibition of active elastase in sputum ([2]; over several hours after single dose, all dose groups (FIG. 5)): > 90%
